Key:
[1] = target: Beta-3 adrenergic receptor (Homo sapiens, UniProt P13945)
Thromboxane A2 receptor = target: T1, Thromboxane A2 receptor (Homo sapiens, UniProt P21731)
T1 sequence (P21731 whole entry): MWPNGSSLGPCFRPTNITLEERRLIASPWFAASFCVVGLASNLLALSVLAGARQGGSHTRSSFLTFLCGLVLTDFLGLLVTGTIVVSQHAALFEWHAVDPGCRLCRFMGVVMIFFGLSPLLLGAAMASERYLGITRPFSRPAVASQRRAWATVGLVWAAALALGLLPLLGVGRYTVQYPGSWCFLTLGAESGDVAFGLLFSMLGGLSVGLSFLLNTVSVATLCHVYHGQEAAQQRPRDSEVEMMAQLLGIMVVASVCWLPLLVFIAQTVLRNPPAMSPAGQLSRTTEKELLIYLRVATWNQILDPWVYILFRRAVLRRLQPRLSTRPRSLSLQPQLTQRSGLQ

[2] = target: T2, 5-hydroxytryptamine receptor 1A (Homo sapiens, UniProt P08908)
T2 sequence (P08908 whole entry): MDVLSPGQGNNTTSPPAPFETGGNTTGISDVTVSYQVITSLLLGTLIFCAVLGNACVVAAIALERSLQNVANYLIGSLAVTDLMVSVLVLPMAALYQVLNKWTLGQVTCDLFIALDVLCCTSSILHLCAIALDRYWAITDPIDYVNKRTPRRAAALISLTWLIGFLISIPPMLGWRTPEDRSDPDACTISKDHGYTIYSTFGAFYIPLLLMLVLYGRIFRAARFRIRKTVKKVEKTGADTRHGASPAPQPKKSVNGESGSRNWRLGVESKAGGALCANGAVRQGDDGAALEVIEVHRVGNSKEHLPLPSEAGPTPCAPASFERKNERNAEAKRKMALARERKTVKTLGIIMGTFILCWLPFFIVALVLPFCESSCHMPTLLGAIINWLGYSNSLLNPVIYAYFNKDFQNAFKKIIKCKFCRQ

[3] = target: T3, Gastrin/cholecystokinin type B receptor (Homo sapiens, UniProt P32239)
T3 sequence (P32239 whole entry): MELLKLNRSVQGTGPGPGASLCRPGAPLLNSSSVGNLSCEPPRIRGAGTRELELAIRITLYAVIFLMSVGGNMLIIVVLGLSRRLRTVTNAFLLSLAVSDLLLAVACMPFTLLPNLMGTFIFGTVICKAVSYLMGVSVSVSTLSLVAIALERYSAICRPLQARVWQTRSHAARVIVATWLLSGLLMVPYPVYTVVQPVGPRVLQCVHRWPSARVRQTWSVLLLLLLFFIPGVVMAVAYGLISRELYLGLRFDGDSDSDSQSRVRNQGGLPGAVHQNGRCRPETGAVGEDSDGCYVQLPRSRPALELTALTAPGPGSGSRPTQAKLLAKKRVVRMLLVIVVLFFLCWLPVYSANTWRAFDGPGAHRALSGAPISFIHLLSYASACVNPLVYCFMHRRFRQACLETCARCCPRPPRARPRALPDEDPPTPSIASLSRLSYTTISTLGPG

Cannabinoid receptor 1 = Cannabinoid receptor 1 (Homo sapiens, UniProt P21554)
Cannabinoid receptor 1, sequence (P21554 whole entry): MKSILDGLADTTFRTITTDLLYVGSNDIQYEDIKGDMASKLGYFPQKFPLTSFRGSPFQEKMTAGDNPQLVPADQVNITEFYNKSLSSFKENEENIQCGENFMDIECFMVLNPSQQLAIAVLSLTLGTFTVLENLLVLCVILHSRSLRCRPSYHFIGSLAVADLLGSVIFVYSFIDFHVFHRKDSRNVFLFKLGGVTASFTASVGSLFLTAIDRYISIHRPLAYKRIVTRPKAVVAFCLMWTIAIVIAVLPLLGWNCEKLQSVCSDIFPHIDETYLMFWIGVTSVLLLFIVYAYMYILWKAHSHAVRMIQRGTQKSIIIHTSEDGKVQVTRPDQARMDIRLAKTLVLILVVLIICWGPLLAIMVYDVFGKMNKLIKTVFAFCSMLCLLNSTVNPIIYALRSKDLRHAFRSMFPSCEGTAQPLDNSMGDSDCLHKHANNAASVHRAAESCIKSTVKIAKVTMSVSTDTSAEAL

Endothelin-1 receptor = target: T4, Endothelin-1 receptor (Homo sapiens, UniProt P25101)
T4 sequence (P25101 whole entry): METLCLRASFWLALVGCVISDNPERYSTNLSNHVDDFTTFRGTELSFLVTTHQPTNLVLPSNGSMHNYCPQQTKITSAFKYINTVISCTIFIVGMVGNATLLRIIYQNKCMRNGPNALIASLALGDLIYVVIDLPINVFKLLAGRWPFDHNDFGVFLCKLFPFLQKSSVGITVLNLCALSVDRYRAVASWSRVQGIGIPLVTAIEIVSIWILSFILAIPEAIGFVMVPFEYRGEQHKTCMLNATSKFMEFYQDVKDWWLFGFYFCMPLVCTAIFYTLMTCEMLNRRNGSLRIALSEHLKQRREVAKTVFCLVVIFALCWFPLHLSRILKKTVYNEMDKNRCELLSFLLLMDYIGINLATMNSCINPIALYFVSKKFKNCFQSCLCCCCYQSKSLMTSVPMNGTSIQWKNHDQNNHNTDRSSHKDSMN

[4] = target: T5, Equilibrative nucleoside transporter 1 (Homo sapiens, UniProt Q99808)
T5 sequence (Q99808 whole entry): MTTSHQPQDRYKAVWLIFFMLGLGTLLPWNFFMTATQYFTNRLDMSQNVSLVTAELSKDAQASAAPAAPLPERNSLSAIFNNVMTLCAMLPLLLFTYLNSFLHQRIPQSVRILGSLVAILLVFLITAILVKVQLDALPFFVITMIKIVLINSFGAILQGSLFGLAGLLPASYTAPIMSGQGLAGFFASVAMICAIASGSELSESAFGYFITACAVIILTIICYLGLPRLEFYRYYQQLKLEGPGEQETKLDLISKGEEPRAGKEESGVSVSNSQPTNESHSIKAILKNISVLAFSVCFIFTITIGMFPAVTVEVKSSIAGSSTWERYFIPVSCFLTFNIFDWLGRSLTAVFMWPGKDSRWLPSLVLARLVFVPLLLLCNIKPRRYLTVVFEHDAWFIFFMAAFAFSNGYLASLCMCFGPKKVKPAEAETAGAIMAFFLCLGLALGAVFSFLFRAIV

Mu-type opioid receptor = Mu-type opioid receptor (Homo sapiens, UniProt P35372)
Mu-type opioid receptor, sequence (P35372 whole entry): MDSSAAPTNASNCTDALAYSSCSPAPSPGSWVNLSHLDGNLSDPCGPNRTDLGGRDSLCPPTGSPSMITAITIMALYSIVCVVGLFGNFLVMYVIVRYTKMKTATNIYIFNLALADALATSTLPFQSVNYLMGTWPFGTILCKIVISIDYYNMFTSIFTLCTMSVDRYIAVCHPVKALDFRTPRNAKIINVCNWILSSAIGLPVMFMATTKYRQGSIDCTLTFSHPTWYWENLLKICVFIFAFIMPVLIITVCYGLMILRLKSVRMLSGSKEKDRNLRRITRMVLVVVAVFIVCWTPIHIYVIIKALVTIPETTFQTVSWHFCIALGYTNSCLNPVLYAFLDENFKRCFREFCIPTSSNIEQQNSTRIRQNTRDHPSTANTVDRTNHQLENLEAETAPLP

[5] = target: Muscarinic acetylcholine receptor M3 (Homo sapiens, UniProt P20309)
Muscarinic acetylcholine receptor M3, sequence (P20309 whole entry): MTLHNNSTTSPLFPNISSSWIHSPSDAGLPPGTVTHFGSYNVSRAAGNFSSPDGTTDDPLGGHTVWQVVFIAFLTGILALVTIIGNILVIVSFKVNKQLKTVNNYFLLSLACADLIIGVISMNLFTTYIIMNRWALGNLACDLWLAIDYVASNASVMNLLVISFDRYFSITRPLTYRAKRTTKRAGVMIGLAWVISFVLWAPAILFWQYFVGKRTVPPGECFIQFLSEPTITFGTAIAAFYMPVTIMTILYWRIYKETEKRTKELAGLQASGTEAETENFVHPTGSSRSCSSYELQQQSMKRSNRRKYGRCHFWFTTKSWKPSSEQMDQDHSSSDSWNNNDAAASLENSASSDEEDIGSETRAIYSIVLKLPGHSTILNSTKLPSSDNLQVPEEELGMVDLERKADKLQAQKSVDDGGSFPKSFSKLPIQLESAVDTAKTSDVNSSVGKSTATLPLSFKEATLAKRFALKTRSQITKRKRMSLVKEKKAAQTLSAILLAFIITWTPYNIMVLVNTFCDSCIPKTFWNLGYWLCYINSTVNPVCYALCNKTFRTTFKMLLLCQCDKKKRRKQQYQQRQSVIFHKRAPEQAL

[6] = target: T6, Alpha-2A adrenergic receptor (Homo sapiens, UniProt P08913)
T6 sequence (P08913 whole entry): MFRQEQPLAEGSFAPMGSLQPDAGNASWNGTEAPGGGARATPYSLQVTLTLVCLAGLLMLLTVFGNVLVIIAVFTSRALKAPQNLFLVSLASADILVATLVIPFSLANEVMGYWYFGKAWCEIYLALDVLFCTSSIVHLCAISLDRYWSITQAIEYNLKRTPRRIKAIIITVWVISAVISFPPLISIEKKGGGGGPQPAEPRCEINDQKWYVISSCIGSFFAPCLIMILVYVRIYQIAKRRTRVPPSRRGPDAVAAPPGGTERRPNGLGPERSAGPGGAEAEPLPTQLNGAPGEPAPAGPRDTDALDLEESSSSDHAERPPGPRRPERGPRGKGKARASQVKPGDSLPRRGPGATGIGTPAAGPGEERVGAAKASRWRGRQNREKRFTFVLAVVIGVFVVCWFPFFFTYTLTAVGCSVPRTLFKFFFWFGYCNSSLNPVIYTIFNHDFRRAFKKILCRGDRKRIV

Histamine H1 receptor = Histamine H1 receptor (Homo sapiens, UniProt P35367); format: functional, cell-based
Histamine H1 receptor, sequence (P35367 whole entry): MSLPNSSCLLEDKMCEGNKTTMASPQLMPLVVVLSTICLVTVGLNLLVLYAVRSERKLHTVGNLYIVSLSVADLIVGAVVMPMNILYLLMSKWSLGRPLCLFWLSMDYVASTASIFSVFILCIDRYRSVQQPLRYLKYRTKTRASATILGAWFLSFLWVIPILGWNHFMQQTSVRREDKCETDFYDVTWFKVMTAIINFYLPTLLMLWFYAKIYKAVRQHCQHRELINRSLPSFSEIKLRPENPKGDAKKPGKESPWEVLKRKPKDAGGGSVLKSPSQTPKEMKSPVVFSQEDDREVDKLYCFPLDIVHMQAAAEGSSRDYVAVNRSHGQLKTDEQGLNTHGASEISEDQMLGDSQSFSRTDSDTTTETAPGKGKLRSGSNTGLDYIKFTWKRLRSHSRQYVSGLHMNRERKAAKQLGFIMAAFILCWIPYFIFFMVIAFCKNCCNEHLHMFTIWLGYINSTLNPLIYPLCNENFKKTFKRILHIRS
Also: assay procedure not described here.

Beta-3 adrenergic receptor, sequence (P13945 whole entry): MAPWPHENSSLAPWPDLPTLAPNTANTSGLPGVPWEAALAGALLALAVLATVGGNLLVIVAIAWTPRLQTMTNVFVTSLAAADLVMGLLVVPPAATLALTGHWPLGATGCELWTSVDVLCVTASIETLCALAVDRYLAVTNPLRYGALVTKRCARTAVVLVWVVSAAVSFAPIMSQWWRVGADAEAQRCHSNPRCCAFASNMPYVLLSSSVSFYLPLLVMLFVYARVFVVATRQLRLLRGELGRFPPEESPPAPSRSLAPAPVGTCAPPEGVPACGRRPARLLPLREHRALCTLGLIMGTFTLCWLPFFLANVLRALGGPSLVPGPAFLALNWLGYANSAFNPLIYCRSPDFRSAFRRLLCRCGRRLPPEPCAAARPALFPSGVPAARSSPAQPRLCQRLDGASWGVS

C[C@]12C=CC(=O)C=C1CC[C@@H]1[C@@H]2[C@@H](O)C[C@@]2(C)[C@H]1CC[C@]2(O)C(=O)CO [PREDNISOLONE]
AC50 [1]: > 30 µM
AC50 (Thromboxane A2 receptor): > 30 µM
AC50 [2]: > 10 µM
AC50 [3]: > 30 µM
AC50 (Cannabinoid receptor 1): > 10 µM
AC50 (Endothelin-1 receptor): > 30 µM
AC50 [4]: > 30 µM
AC50 (Mu-type opioid receptor): > 30 µM

CC(NCCC(c1ccccc1)c1ccccc1)c1ccccc1 (configuration not stated) [FENDILINE]
AC50 (Mu-type opioid receptor): 0.78 µM

CCC(=O)c1ccc2c(c1)N(CC(C)N(C)C)c1ccccc1S2 (configuration not stated) [PROPIOMAZINE]
AC50 [5]: 0.18 µM
AC50 (Thromboxane A2 receptor): > 10 µM
AC50 (Cannabinoid receptor 1): > 10 µM
AC50 [4]: > 10 µM
AC50 (Mu-type opioid receptor): 14 µM

CC(C)(C)NCC(O)COc1ccccc1C#N (configuration not stated) [BUNITROLOL]
AC50 [5]: > 30 µM

COc1cccc2c1C(=O)c1c(O)c3c(c(O)c1C2=O)C[C@@](O)(C(=O)CO)C[C@@H]3O[C@H]1C[C@H](N)[C@H](O)[C@H](C)O1 [DOXORUBICIN]
AC50 [6]: > 10 µM
AC50 [2]: > 10 µM
AC50 [3]: > 30 µM
AC50 (Cannabinoid receptor 1): > 10 µM
AC50 (Endothelin-1 receptor): > 30 µM
AC50 [4]: > 30 µM
AC50 (Mu-type opioid receptor): > 30 µM

CC1(C)O[C@@H]2C[C@H]3[C@@H]4CCC5=CC(=O)C=C[C@]5(C)[C@@]4(F)[C@@H](O)C[C@]3(C)[C@]2(C(=O)CO)O1 [TRIAMCINOLONE ACETONIDE]
AC50 (Thromboxane A2 receptor): > 30 µM
AC50 [3]: > 30 µM
AC50 (Endothelin-1 receptor): > 30 µM

COc1ccc(C(=O)c2ccccc2)c(O)c1 [OXYBENZONE]
AC50 [5]: > 30 µM

C[C@]12CCC(=O)C=C1[C@@H]1C[C@@H]1[C@H]1[C@@H]3[C@@H]4C[C@@H]4[C@@]4(CCC(=O)O4)[C@@]3(C)CC[C@@H]12 [DROSPIRENONE]
AC50 [5]: > 30 µM
AC50 (Thromboxane A2 receptor): > 30 µM
AC50 [3]: > 30 µM
AC50 (Cannabinoid receptor 1): > 30 µM
AC50 (Endothelin-1 receptor): > 30 µM
AC50 [4]: > 30 µM

CN(C)CCC(O)(c1ccccc1)c1ccccc1Cl (configuration not stated) [CHLOPHEDIANOL]
AC50 [5]: > 30 µM
AC50 (Thromboxane A2 receptor): > 10 µM
AC50 (Cannabinoid receptor 1): > 10 µM
AC50 [4]: > 10 µM
AC50 (Mu-type opioid receptor): > 30 µM

Cc1ccc(O)c([C@H](CCN(C(C)C)C(C)C)c2ccccc2)c1 [TOLTERODINE]
AC50 [1]: > 30 µM
AC50 [6]: > 10 µM
AC50 [2]: > 10 µM
AC50 (Cannabinoid receptor 1): > 10 µM
AC50 (Mu-type opioid receptor): > 10 µM

N=C(N)NC(=O)c1nc(Cl)c(N)nc1N [AMILORIDE]
AC50 [1]: > 30 µM
AC50 [6]: > 10 µM
AC50 (Thromboxane A2 receptor): > 30 µM
AC50 [2]: > 10 µM
AC50 [3]: > 30 µM
AC50 (Cannabinoid receptor 1): > 30 µM
AC50 (Endothelin-1 receptor): > 30 µM
AC50 [4]: > 30 µM
AC50 (Mu-type opioid receptor): > 10 µM

Oc1cc(Cl)ccc1Oc1ccc(Cl)cc1Cl [TRICLOSAN]
AC50 [5]: > 30 µM
AC50 (Thromboxane A2 receptor): 21 µM
AC50 [3]: > 30 µM
AC50 (Endothelin-1 receptor): > 30 µM
AC50 (Histamine H1 receptor): > 30 µM

C[C@]12C=CC(=O)C=C1C(Cl)=C[C@@H]1[C@@H]2[C@@H](O)C[C@@]2(C)[C@H]1CC[C@]2(O)C(=O)CO [CLOPREDNOL]
AC50 [5]: > 30 µM
AC50 [3]: > 30 µM
AC50 (Endothelin-1 receptor): > 30 µM
AC50 [4]: > 30 µM
AC50 (Histamine H1 receptor): > 30 µM

CN(C)[C@@H]1C(O)=C(C(=O)NCN2CCCC2)C(=O)[C@@]2(O)C(O)=C3C(=O)c4c(O)cccc4[C@@](C)(O)[C@H]3C[C@@H]12 [ROLITETRACYCLINE]
AC50 [5]: > 10 µM
AC50 (Thromboxane A2 receptor): > 10 µM
AC50 (Cannabinoid receptor 1): > 10 µM
AC50 [4]: > 10 µM
AC50 (Mu-type opioid receptor): > 30 µM

C[C@]12CCC(=O)C=C1C=C[C@@H]1[C@@H]2CC[C@@]2(C)[C@H]1CC[C@@]21CCC(=O)O1 [CANRENONE]
AC50 [5]: > 30 µM
AC50 (Thromboxane A2 receptor): > 30 µM
AC50 [3]: > 30 µM
AC50 (Endothelin-1 receptor): > 30 µM
AC50 [4]: > 30 µM

CCn1c(=O)c2c(nc(/C=C/c3ccc(OC)c(OC)c3)n2C)n(CC)c1=O [ISTRADEFYLLINE]
AC50 (Histamine H1 receptor): > 30 µM

CC(C)(Oc1ccc(Cl)cc1)C(=O)OCCOC(=O)c1cccnc1 [ETOFIBRATE]
AC50 [5]: > 30 µM
AC50 (Thromboxane A2 receptor): > 30 µM
AC50 [3]: > 30 µM
AC50 (Endothelin-1 receptor): > 30 µM
AC50 [4]: > 30 µM

COc1ccc(-c2cc(=S)ss2)cc1 [ANETHOLTRITHION]
AC50 [5]: > 30 µM
AC50 (Thromboxane A2 receptor): 16 µM
AC50 [3]: 5.3 µM
AC50 (Endothelin-1 receptor): > 10 µM
AC50 [4]: 5.4 µM
